According to US20030044497A1, “Process to treat fish with tasteless smoke or carbon monoxide through the respiratory and circulatory systems” (priority 2001, published 2003):

How the values were obtained:
[1] = Increase of CO concentration in treated flesh; conditions: treated fish flesh or other meats
Description: However, when natural fish flesh or other meats are treated with carbon monoxide the concentrations in the flesh can increase incrementally from approximately 1.1 to 20 times and on occasion to as much as 80 times. These observed and measured increases in carbon monoxide in the flesh are dependent upon several factors including the quantity of myoglobin in the fish and other meats, carbon monoxide concentration, time, and method of exposure.

hemoglobin = conditions: cited from earlier work
[2] = CO gill absorption formula calculation for tuna; conditions: yellowfin tuna, hemoglobin 11-12 grams/deciliter x 1.39
Description: Hemoglobin CO capacity is 1.39 multiplied times the hemoglobin concentration in the blood which gives ml of CO per gram of Hb per deciliter of blood. For example, from the cardiorespiratory table above the hemoglobin concentration of yellowfin tuna is 11-12 grams/deciliter and when multiplied by 1.39 the result is 15.3-16.7 ml CO/deciliter of blood as the COHb capacity of yellowfin.
Maximum saturation time is a function of the gill absorption rate and reaching saturation equilibrium within the fish blood and the fish tissue. This absorption rate has two components, the CO bound to the Hb and the free CO diffused through the gills directly into the blood plasma. It can be computed by the following relationship:
CO gill absorption=(cardiac output*(Hb*1.39*%sat)*wt)+((cardiac output*(0.029*PCO)/100)*wt)
Cardiac output is in ml blood/min/kg; Hb is blood hemoglobin in grams/ml (Hb is divided by 100 to convert dl to ml; wt is fish weight in kg; 0.0029 is the solubility of CO in mlCO/dl; PCO is the partial pressure of CO in mmHg (0.0029*PCO) is divided by 100 to convert dl to ml.
From the cardiorespiratory function table above, we assume a yellowfin tuna with wt=1 kg; Hb=0.11 gm/ml; cardiac output=115 ml/min/kg; %sat=100%; and PCO=228 mmHg which is the partial pressure of tasteless smoke comprised of 30% CO. […]

[3] = 24 degrees Centigrade, one atmosphere, 20% reduction for seawater medium
Description: The volume of gas, vo, (in milliliters STPD) dissolved in one liter of water at one atmosphere pressure (760 mm Hg) is expressed by the following formula:
vo=absorption coefficient×(V×Po)
where V is the volume of the solvent, and Po is the partial pressure of the gas in atmospheres. Therefore, the amount of gas dissolved is dependent upon its partial pressure in a linear relationship.
The coefficient of solubility is defined as the volume of the gas taken up by a unit volume of the solvent under a particular set of temperature and pressure conditions. If v is the volume of the dissolved gas, measured at temperature T and partial pressure Pg atm, with To equal to 0 degrees Centigrade, then:

Humans = conditions: cited from earlier work
[4] = liquid water or blood plasma; cited from earlier work

| SMILES | increase of CO concentration in the flesh over natural, on occasion [1] [times] | P50 partial pressure at which half the hemoglobin is saturated (hemoglobin) [mmHg] | COHb capacity of blood [2] | maximum solubility [3] [ml CO per liter H2O] | COHb level at which rapid death occurs (Humans) | half-life (time for a 50% COHb reduction in the blood) (Humans) [h] | solubility constant [4] |
| --- | --- | --- | --- | --- | --- | --- | --- |
| [C-]#[O+] [CO, carbon monoxide] | ≤ 80 | 0.4 | 15.3-16.7 ml CO/deciliter of blood | 17.63 | exceed 80% | 5 | 0.029 mlCO/liter H2O/mmHgCO |
| O=O [O2, oxygen, reference compound] | – | – | – | – | – | – | 0.030 ml O2/liter H2O/mm1Hg O2 |
